The test system of one series is T. vaginalis 30001. The series is described as follows: In vitro anti-T. vaginalis activity (50% inhibition of growth). To be noted: for IC50: Trichomonas vaginalis. In kind it is cell-based, Trichomonas vaginalis. As to the method: The activity of these compounds against Giardia lamblia and Trichomonas vaginalis are shown by the following test:
(§1) About 1.0-2.0 ml of a nutrient medium, for example, the modified Diamond's TPS medium at pH 7.05, together with about 10% by volume of heat-inactivated serum and about 1% by volume of antibiotic-antimycotic solution is placed in each well of a multiwell plate. To this mixture, an aliquot of a suspension of G. lamblia cells containing about […] is added. Subsequently, each well is inoculated with a known concentration of one of the active compounds, for example, 1-(3,4-dichlorocinnamylideneamino)-3-(4-cyanobenzylideneamino)guanidine. The multiwell plate containing the individual culture samples is incubated under anaerobic conditions at about 37° C. for about 16-24 hrs. The number of viable cells remaining in each well are then counted, such as with a hemacytometer. The percentage of survival is determined by comparison to controls inoculated with DMSO (dimethylsulfoxide) and the effective concentration (in parts per million) for 50% inhibition of growth (ED50) is determined. It is established that the lower the number of the value of ED50, the higher the activity of the active compound.
Employing essentially the same method of Example 1, centrifuged cells of T. vaginalis 30001 are inoculated with 1-(4-chlorocinnamylideneamino)-3-(3,4-dichlorobenzylideneamino)guanidine at 37° C. for 24 hours.
Similarly, previously described compounds (2) to (10) and the pharmaceutically acceptable salts thereof an active anti- T. vaginalis agents as shown in Table 1.

Series [1] relates to Giardia lamblia. Nature of the series: In vitro anti-G. lamblia activity (50% inhibition of growth, viable cell count). In kind it is cell-based. To be noted: Giardia duodenalis, 37° C., anaerobic, about 16-24 hrs (Example 1: 24 hours), vs DMSO controls, read-out: Anti-G. lamblia ED50. As to the method:
as §1
In each well of a multiwell plate is placed 1.4 ml of media mix containing Diamond's TPS medium (see Table 2) at pH 7.05, 10% by volume of heat-inactivated fetal bovine serum, and 1% by volume of an antibiotic-antimycotic solution (see Table 3). A suspension of Giardia lamblia is centrifuged at 2,500 xg. for 6 minutes. The cells are resuspended in a small volume of the Diamond's medium, counted, and each well inoculated with approximately 10^6 organisms. A stock solution of 1-(4-chlorocinnamylideneamino)-3-(3,4-dichlorobenzylideneamino)guanidine in dimethylsulfoxide is made at a concentration of 150 μg/ml. The wells are then inoculated with various concentrations of the drug. The plates are incubated for 24 hours at 37° C. in an anaerobic Gas Pak jar. After 24 hours of incubation each well is mixed and counted for viable organisms using a hemacytometer. The percentage of survival is determined by comparing the treated wells to controls treated with dimethylsulfoxide.
Employing substantially the similar procedure as described in Example 1 but substituting for 1-(4-chlorocinnamylideneamino)-3-(3,4-dichlorobenzylideneamino)guanidine used therein other active compounds, there are obtained similar results indicating the anti- G. lamblia activities of the compounds included above in Table 1.

Series [2] relates to Giardia lamblia. To be noted: New York Times, June 10, 1980; cited from earlier work.
For series [3] the following is noted: cited from earlier work.
The test system of the next series is animals. To be noted: cited from earlier work.
Another series has as its system Trichomonas vaginalis. To be noted: has been reported; cited from earlier work.
The mark [4] stands for this setting: in vitro, 37° C., 24 hours, Table 1, read-out: Anti-T. vaginalis ED50.

Values after ≈ are worked out from the molar mass of the structure shown. Read-outs that look alike come from different tables or passages of the source.

For `N=C(NN=CC=Cc1ccc(Cl)cc1)NN=Cc1ccc(Cl)c(Cl)c1` [(1), 1-(4-chlorocinnamylideneamino)-3-(3,4-dichlorobenzylideneamino)guanidine], the IC50 with T. vaginalis 30001 (Example 2, 37° C. for 24 hours, unit inferred, read-out: ED50 value, anti-T. vaginalis) was 2.25 µg/mL (≈ 5.7 µM); in the series with Giardia lamblia [1], 1.1 µg/mL (≈ 2.79 µM). Further, in the series on T. vaginalis 30001 (in vitro, method of Example 1/2), the “anti-T. vaginalis activity in words” value is reported as “effective anti- T. vaginalis agent”.

On to `CCN(CC)CCCC(C)Nc1c2ccc(Cl)cc2nc2ccc(OC)cc12` (stereo not shown) [Atabrine], for which the treatment of giardiasis entry with Giardia lamblia [2] is given as “successfully treated”. Also, in series [3] (in vivo), the adverse side effects entry is on record as “known to cause adverse side effects”.

On to `CN(N=Cc1ccc(Cl)cc1)C(=N)NN=CC=Cc1ccc(Cl)c(Cl)c1` [(4), 1-(3,4-dichlorocinnamylideneamino)-3-(4-chlorobenzylideneamino)-3-methyl-guanidine], for which the values for the IC50 in the series on T. vaginalis 30001 (setting [4]) and in the series with Giardia lamblia [1] were 2.5 µg/mL (≈ 6.12 µM) and 0.58 µg/mL (≈ 1.42 µM), respectively.

On to `CN(N=Cc1ccc(Cl)cc1)C(=N)NN=CC=Cc1ccc(C#N)cc1` [(3), 1-(4-cyanocinnamylideneamino)-3-(4-chlorobenzylideneamino)-3-methyl-guanidine], for which the IC50 with T. vaginalis 30001 (setting [4]) is 3.25 µg/mL (≈ 8.91 µM); in the series on Giardia lamblia [1] it was 0.85 µg/mL (≈ 2.33 µM).

For `CN(N=Cc1ccc(C(F)(F)F)cc1)C(=N)NN=CC=Cc1ccc(Cl)c(Cl)c1` [(6), 1-(3,4-dichlorocinnamylideneamino)-3-(4-trifluoromethylbenzylideneamino)-3-methyl-guanidine], the IC50 worked out at 2.67 µg/mL (≈ 6.04 µM) in the series on T. vaginalis 30001 (setting [4]) and 0.73 µg/mL (≈ 1.65 µM) in the series on Giardia lamblia [1].

Take `CN(N=Cc1ccc(Cl)cc1)C(=N)NN=CC=Cc1ccc(Cl)cc1` [(8), 1-(4-chlorocinnamylideneamino)-3-(4-chlorobenzylideneamino)-3-methyl-guanidine]: the IC50 was determined as 2.67 µg/mL (≈ 7.13 µM) in the series on T. vaginalis 30001 (setting [4]) and 1.4 µg/mL (≈ 3.74 µM) with Giardia lamblia [1].

Turning to `N#Cc1ccc(C=NNC(=N)NN=CC=Cc2ccc(Cl)c(Cl)c2)cc1` [(7), 1-(3,4-dichlorocinnamylideneamino)-3-(4-cyanobenzylideneamino)guanidine], the IC50 in the series on T. vaginalis 30001 (setting [4]) was 1 µg/mL (≈ 2.6 µM); in the series on Giardia lamblia [1] it was 0.57 µg/mL (≈ 1.48 µM).

`O=C1OCCN1/N=C/c1ccc([N+](=O)[O-])o1` [furazolidone]: the treatment of giardiasis result in the series with Giardia lamblia [2] is given as “successfully treated”. For the same molecule, the adverse side effects entry in series [3] (New York Times, June 10, 1980) is listed as “known to cause adverse side effects”.

For the molecule `CN(N=Cc1ccc(C(F)(F)F)cc1)C(=N)NN=CC=Cc1ccc(Cl)cc1` [(9), 1-(4-chlorocinnamylideneamino)-3-(4-trifluoromethylbenzylideneamino)-3-methyl-guanidine], the values for the IC50 with T. vaginalis 30001 (setting [4]) and in the series with Giardia lamblia [1] were 2.38 µg/mL (≈ 5.84 µM) and 1.3 µg/mL (≈ 3.19 µM), respectively.

For `Cc1ncc([N+](=O)[O-])n1CCO` [Flagyl (metronidazole), metronidazole], the IC50 was under 1 µg/mL in the series on T. vaginalis 30001 (setting [4]) and 6.2 µg/mL (≈ 36.2 µM) with Giardia lamblia [1]. Moreover, the treatment of giardiasis result in the series on Giardia lamblia [2] is given as “successfully treated”. The carcinogenicity entry in the series on animals is given as “carcinogenic in animals”. For the same molecule, in series [3] (in vivo), the adverse side effects entry is given as “known to cause adverse side effects”. In addition, the therapy of trichomoniasis result in the series on Trichomonas vaginalis is reported as “Successful therapy”.

As for `CN(N=Cc1ccc(Cl)cc1)C(=N)NN=CC=Cc1ccc(C(F)(F)F)cc1` [(2), 1-(4-trifluoromethylcinnamylideneamino)-3-(4-chlorobenzylideneamino)-3-methylguanidine], the figures for the IC50 in the series with T. vaginalis 30001 (setting [4]) and with Giardia lamblia [1] were 2.75 µg/mL (≈ 6.74 µM) and 0.8 µg/mL (≈ 1.96 µM), respectively.

Regarding `CN(N=Cc1ccc(C(F)(F)F)cc1)C(=N)NN=CC=Cc1ccc(C#N)cc1` [(5), 1-(4-cyanocinnamylideneamino)-3-(4-trifluoromethylbenzylideneamino)-3-methyl-guanidine], the IC50 in the series on T. vaginalis 30001 (setting [4]) was 3.25 µg/mL (≈ 8.16 µM); in the series with Giardia lamblia [1], 1.5 µg/mL (≈ 3.77 µM).

Take `CN(N=Cc1ccc([N+](=O)[O-])cc1)C(=N)NN=CC=Cc1ccc(C(F)(F)F)cc1` [(10), 1-(4-trifluoromethylcinnamylideneamino)-3-(4-nitrobenzylideneamino)-3-methyl-guanidine]: the IC50 in the series with T. vaginalis 30001 (setting [4]) was 3.25 µg/mL (≈ 7.77 µM); in the series on Giardia lamblia [1], 1 µg/mL (≈ 2.39 µM).

These data come from US4321274A, “Substituted 1-(cinnamylideneamino)-3-benzyli-deneaminoguanidines active against Giardia lamblia and Trichomonas vaginalis” (priority 1980, dated 1982).
